Assay results from patent US20190091165A1, “METHOD FOR PREPARING NANOPARTICLE OF ACTIVE INGREDIENT USING LIPID AS LUBRICANT IN MILLING PROCESS” (BIO-SYNECTICS INC., priority 2017, published 2019).

Assay: Separate experiment: dissolving and recrystallizing in a solvent (crystal form / salt stability)
Type: physicochemical

Question: With `CNC(=O)c1cc(Oc2ccc(NC(=O)Nc3ccc(Cl)c(C(F)(F)F)c3)cc2)ccn1.Cc1ccc(S(=O)(=O)O)cc1` [Sorafenib tosylate III] as the compound, how does the “crystal form and salt stability on recrystallization” value read?
Answer: Its value is “crystal form change and partial generation of free base compound by loss of tosylate salt”.
